Data taken from US8076338B2, “Kinase modulators and methods of use” (Exelixis, Inc., priority 2004, dated 2011).
pIC50: −log10 of the molar value. Like-named read-outs stand apart in the source and are kept apart here.

Legend:
AktK = AktK (Homo sapiens, UniProt P31749); assay: Luciferase-coupled chemiluminescence kinase assay (ATP consumption); assay type: biochemical; settings: read-out: AKT-1 IC50
In short: (§1)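 Activity is read as ATP depletion: luciferase-luciferin reagent added after a 3 h ambient-temperature kinase reaction, with total ATP use limited to 25-60%. Before ATP addition, 2.5-5 nM kinase and compound were preincubated 30 min in Tris pH 7.5/MgCl2/TX-100/DTT buffer; […].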

p70S6K = p70S6K (Homo sapiens, UniProt P23443); assay: as above; assay type: biochemical
p70S6K, sequence (P23443 whole entry): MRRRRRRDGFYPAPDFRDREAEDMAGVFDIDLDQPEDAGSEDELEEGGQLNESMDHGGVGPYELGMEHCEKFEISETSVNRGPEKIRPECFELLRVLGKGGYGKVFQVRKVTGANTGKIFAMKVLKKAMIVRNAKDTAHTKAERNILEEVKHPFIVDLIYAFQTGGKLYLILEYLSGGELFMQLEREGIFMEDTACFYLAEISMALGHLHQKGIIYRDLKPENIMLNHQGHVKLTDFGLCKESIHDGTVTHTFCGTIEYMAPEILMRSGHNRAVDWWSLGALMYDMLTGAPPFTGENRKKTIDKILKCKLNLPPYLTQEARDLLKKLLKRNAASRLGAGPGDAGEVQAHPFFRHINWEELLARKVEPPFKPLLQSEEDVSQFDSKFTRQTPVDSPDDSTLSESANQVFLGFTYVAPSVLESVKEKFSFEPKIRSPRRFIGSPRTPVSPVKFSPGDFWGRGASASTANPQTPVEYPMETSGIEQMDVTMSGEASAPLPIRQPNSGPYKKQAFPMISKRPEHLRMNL
In short: as §1

AktK, sequence (P31749 whole entry): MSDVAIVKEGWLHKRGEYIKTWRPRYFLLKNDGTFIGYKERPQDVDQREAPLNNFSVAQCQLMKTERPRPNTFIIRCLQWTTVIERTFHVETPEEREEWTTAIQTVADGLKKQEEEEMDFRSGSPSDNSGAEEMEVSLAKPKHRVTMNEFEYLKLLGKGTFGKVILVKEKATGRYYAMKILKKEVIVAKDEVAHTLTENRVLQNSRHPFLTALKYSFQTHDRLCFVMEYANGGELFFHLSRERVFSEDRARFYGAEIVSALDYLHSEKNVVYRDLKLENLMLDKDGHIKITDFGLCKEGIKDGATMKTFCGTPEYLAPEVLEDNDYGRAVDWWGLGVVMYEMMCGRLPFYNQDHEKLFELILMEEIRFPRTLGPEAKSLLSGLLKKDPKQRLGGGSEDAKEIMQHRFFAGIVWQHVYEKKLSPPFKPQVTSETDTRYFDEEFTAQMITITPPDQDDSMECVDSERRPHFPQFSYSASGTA

Molecule	pIC50 (AktK; Table 1, class symbols per key)	pIC50 (p70S6K; Table 1, class symbols per key)	pIC50 (AktK)	pIC50 (p70S6K)
CCCOc1cc(NCCN2CCCC2)c(C)c(N2CCN(c3ncnc4[nH]nc(Br)c34)CC2)c1 [Entry 224, 3-[4-(3-bromo-1H-pyrazolo[3,4-d]pyrimidin-4-yl)piperazin-1-yl]-2-methyl-5-(propyloxy)-N-(2-pyrrolidin-1-ylethyl)aniline]	> 7.00	> 7.00		
CCc1n[nH]c2ncnc(N3CCN(c4cc(C(=O)Nc5ccccc5)cc(Br)c4C)CC3)c12 [Entry 192, 3-bromo-5-[4-(3-ethyl-1H-pyrazolo[3,4-d]pyrimidin-4-yl)piperazin-1-yl]-4-methyl-N-phenylbenzamide]	6.00 to 7.00	> 7.00		
CCOC(=O)c1cnc(C(F)(F)F)nc1N1CCN(c2ncnc3[nH]nc(CC)c23)CC1 [Entry 112, ethyl 4-[4-(3-ethyl-1H-pyrazolo[3,4-d]pyrimidin-4-yl)piperazin-1-yl]-2-(trifluoromethyl)pyrimidine-5-carboxylate]	≤ 5.00	5.00 to 6.00		
CCN(CC)CCCOc1nc(Cl)nc(N2CCN(c3ncnc4[nH]nc(Br)c34)CC2)c1C [Entry 149, 3-({6-[4-(3-bromo-1H-pyrazolo[3,4-d]pyrimidin-4-yl)piperazin-1-yl]-2-chloro-5-methylpyrimidin-4-yl}oxy)-N,N-diethylpropan-1-amine]	5.00 to 6.00	6.00 to 7.00		
FC(F)(F)c1cc(N2CCN(c3ncnc4[nH]nc(Br)c34)CC2)c2ccccc2n1 [Entry 109, 4-[4-(3-bromo-1H-pyrazolo[3,4-d]pyrimidin-4-yl)piperazin-1-yl]-2-(trifluoromethyl)quinoline]	≤ 5.00	> 7.00		
Cc1ccc(C(=O)NCC(C)C)cc1N1CCN(c2ncnc3[nH]nc(Cl)c23)CC1 [Entry 197, 3-[4-(3-chloro-1H-pyrazolo[3,4-d]pyrimidin-4-yl)piperazin-1-yl]-4-methyl-N-(2-methylpropyl)benzamide]	5.00 to 6.00	> 7.00		
CCc1n[nH]c2ncnc(N3CCN(c4cc(Cl)cc(OCCN5CCN(C)CC5)c4C)CC3)c12 [Entry 30, 4-[4-(5-chloro-2-methyl-3-{[2-(4-methylpiperazin-1-yl)ethyl]oxy}phenyl)piperazin-1-yl]-3-ethyl-1H-pyrazolo[3,4-d]pyrimidine]	6.00 to 7.00	> 7.00		
Cc1c(NCCN2CCCC2)cc(C(=O)N(C)C(C)C)cc1N1CCN(c2ncnc3[nH]nc(Br)c23)CC1 [Entry 210, 3-[4-(3-bromo-1H-pyrazolo[3,4-d]pyrimidin-4-yl)piperazin-1-yl]-N,4-dimethyl-N-(1-methylethyl)-5-[(2-pyrrolidin-1-ylethyl)amino]benzamide]	6.00 to 7.00	> 7.00		
Cc1ccc(N2CCN(c3ncnc4[nH]nc(Br)c34)CC2)c(C)c1 [Entry 64, 3-bromo-4-[4-(2,4-dimethylphenyl)piperazin-1-yl]-1H-pyrazolo[3,4-d]pyrimidine]	5.00 to 6.00	6.00 to 7.00		
COC(=O)c1ccc(C)c(N2CCN(c3ncnc4[nH]nc(Br)c34)CC2)c1 [Entry 179, methyl 3-[4-(3-bromo-1H-pyrazolo[3,4-d]py-rimidin-4-yl)piperazin-1-yl]-4-methylbenzoate]	> 7.00	> 7.00		
4-[4-(5-chloro-2-methylphenyl)piperazin-1-yl]-1H-pyrazolo[3,4-d]pyrimidin-6-amine [Entry 156]	≤ 5.00	5.00 to 6.00		
Cc1c(NCCN2CCCC2)cc(C(=O)NC(C)C)cc1N1CCN(c2ncnc3[nH]nc(Br)c23)CC1 [Entry 209, 3-[4-(3-bromo-1H-pyrazolo[3,4-d]pyrimidin-4-yl)piperazin-1-yl]-4-methyl-N-(1-methylethyl)-5-[(2-pyrrolidin-1-ylethyl)amino]benzamide]	> 7.00	> 7.00		
Cc1c(NCCN2CCCC2)cc(C(=O)N2CCCC2)cc1N1CCN(c2ncnc3[nH]nc(Br)c23)CC1 [Entry 201, 3-[4-(3-bromo-1H-pyrazolo[3,4-d]pyrimidin-4-yl)piperazin-1-yl]-2-methyl-5-(pyrrolidin-1-ylcarbonyl)-N-(2-pyrrolidin-1-ylethyl)aniline]	6.00 to 7.00	> 7.00		
Cc1c(NCCN2CCCC2)cc(CCc2ccccc2)cc1N1CCN(c2ncnc3[nH]nc(Br)c23)CC1 [Entry 247, 3-[4-(3-bromo-1H-pyrazolo[3,4-d]pyrimidin-4-yl)piperazin-1-yl]-2-methyl-5-(2-phenylethyl)-N-(2-pyrrolidin-1-ylethyl)aniline]	> 7.00	> 7.00		
CCc1n[nH]c2ncnc(N3CCN(c4ccccc4)CC3)c12 [Entry 98, 3-ethyl-4-(4-phenylpiperazin-1-yl)-1H-pyrazolo[3,4-d]pyrimidine]	≤ 5.00	6.00 to 7.00		

Results, then the molecule that gave them:

pIC50 (AktK; Table 1, class symbols per key)	pIC50 (p70S6K; Table 1, class symbols per key)	pIC50 (AktK)	pIC50 (p70S6K)	Molecule
> 7.00	> 7.00			Cc1c(NCCN2CCCC2)cc(C(=O)Nc2cccnc2)cc1N1CCN(c2ncnc3[nH]nc(Br)c23)CC1 [Entry 215, [4-(3-bromo-1H-pyrazolo[3,4-d]pyrimidin-4-yl)piperazin-1-yl]-4-methyl-N-pyridin-3-yl-5-[(2-pyrrolidin-1-ylethyl)amino]benzamide]
		≤ 5.00	6.00 to 7.00	COc1cccc(N2CCN(c3ncnc4[nH]ccc34)CC2)c1 [Entry 303, 4-{4-[3-(methyloxy)phenyl]piperazin-1-yl}-7H-pyrrolo[2,3-d]pyrimidine]
		≤ 5.00	6.00 to 7.00	Fc1ccc(N2CCN(c3ncnc4[nH]ccc34)CC2)cc1 [Entry 312, 4-[4-(4-fluorophenyl)piperazin-1-yl]-7H-pyrrolo[2,3-d]pyrimidine]
		≤ 5.00	6.00 to 7.00	Clc1ccccc1N1CCN(c2ncnc3[nH]ccc23)CC1 [Entry 311, 4-[4-(2-chlorophenyl)piperazin-1-yl]-7H-pyrrolo[2,3-d]pyrimidine]
		> 7.00	> 7.00	Fc1ccc(-c2ccc(Cl)c(N3CCN(c4ncnc5[nH]nc(Br)c45)CC3)c2)c(OCCN2CCCC2)c1 [Entry 289, 3-bromo-4-(4-{4-chloro-4′-fluoro-2′-[(2-pyrrolidin-1-ylethyl)oxy]biphenyl-3-yl}piperazin-1-yl)-1H-pyrazolo[3,4-d]pyrimidine]
		≤ 5.00	5.00 to 6.00	Fc1ccc(N2CCN(c3ncnc4[nH]cnc34)CC2)cc1 [Entry 309, 6-[4-(4-fluorophenyl)piperazin-1-yl]-9H-purine]
> 7.00	> 7.00			Cc1ccc(-c2cccc(F)c2OCCN2CCCC2)cc1N1CCN(c2ncnc3[nH]nc(Br)c23)CC1 [Entry 282, 3-bromo-4-(4-{3′-fluoro-4-methyl-2′-[(2-pyrrolidin-1-ylethyl)oxy]biphenyl-3-yl}piperazin-1-yl)-1H-pyrazolo[3,4-d]pyrimidine]
> 7.00	> 7.00			Cc1c(NCCN(C)C)cc(OCC(F)(CF)CF)cc1N1CCN(c2ncnc3[nH]nc(Br)c23)CC1 [Entry 229, N′-(3-[4-(3-bromo-1H-pyrazolo[3,4-d]pyrimidin-4-yl)piperazin-1-yl]-5-{[2,3-difluoro-2-(fluorometh-yl)propyl]oxy}-2-methylphenyl)-N,N-dimethylethane-1,2-diamine]
> 7.00	> 7.00			Cc1ccc(-c2ccccc2OCCN2CCOCC2)cc1N1CCN(c2ncnc3[nH]nc(Br)c23)CC1 [Entry 279, 3-bromo-4-(4-{4-methyl-2′-[(2-morpholin-4-ylethyl)oxy]biphenyl-3-yl}piperazin-1-yl)-1H-pyrazolo[3,4-d]pyrimidine]
